Results on three compounds are retold here after patent US10646459B2, “Sphingosine pathway modulating compounds for the treatment of cancers” (Enzo Biochem, Inc., priority 2017, dated 2020).

One data set has as its system Hep G2 cells. The experiment in a line: Apoptosis/necrosis assay (flow cytometry), Hep G2 cells. It counts as cell-based, human. The conditions noted are these: 24 hours; SK1-I 10, 20, 40 μM; ozanimod 10, 20, 40 μM; ABC294640 10, 20, 40 μM; vs no-drug control. As to the method:
(§1) Apoptosis/necrosis assays evaluating the effect of different concentrations of each of ozanimod, ABC294640 and SK1-I on the four human hepatocellular carcinoma cell lines, Hep G2, Hep 3B, Huh 7 and PLC-PRF5 were also performed.
(§2) The protocol used for the apoptosis assays was: • Plated cells in 6-well plates and incubated at 37° C. overnight. • Prepared […], 20 μM, and 40 μM. • SK1-I: 10 μM, 20 μM, and 40 μM. • Control: 0.2% DMSO. • Aspirated the medium from the 6-well plates and added test compound concentrations in media or 0.2% DMSO control in media. Incubated at 37° C. for 24 hours. • Collected and processed the cells following the flow cytometry protocol of the GFP Certified® Apoptosis/Necrosis detection kit from Enzo Life Sciences, Inc. (product no. ENZ-51002; Farmingdale, N.Y., USA).
(§3) FIGS. 5-16 present graphs plotting the data from these 24-hour apoptosis assays for the different concentrations of compounds and no-drug control for the various cell lines. Channel FL2 picks up the apoptosis signal and channel FL3 picks up the necrosis signal. Data points in Quadrant 3 (Q3) in the graphs corresponds to cells undergoing apoptosis (cells positive for the apoptosis detection reagent of the assay). Data points in Quadrant 2 (Q2) in the graphs corresponds to cells that are positive for the apoptosis detection reagent and positive for the necrosis detection reagent of the assay (indicative of late-stage apoptosis).
Background: In flow cytometry, cells or beads pass a laser one at a time.

Another data set concerns Hep 3B cells. The experiment in a line: Apoptosis/necrosis assay (flow cytometry), Hep 3B cells. It counts as cell-based, human. The conditions noted are these: 24 hours; SK1-I 10, 20, 40 μM; ozanimod 10, 20, 40 μM; ABC294640 10, 20, 40 μM; vs no-drug control. The method, then: as §1, §2, §3
The test system of data set [1] is human hepatocellular carcinoma cell lines Hep G2, Huh 7, and PLC-PRF5. The data set is described as follows: MTT cell viability assay (48 hours). It counts as cell-based. The conditions noted are these: Hep G2, Huh 7, PLC-PRF5. The method, then: The following MTT assay protocol was followed. • Prepared stock solutions: 50 mM ozanimod, 50 mM ABC294640, 10 mM SK1-I in DMSO. • Plated 20000 cells in 160 μl medium per well in 96-well plates for each cell line and incubated at 37° C. overnight. • Prepared compound serial dilutions: for ozanimod and ABC294640: dilute stock 50 mM 1:50 in medium to 1000 μM; for SK1-I, dilute stock 10 mM 1:50 in medium to […], them make serial 1:1.8 fold serial dilution to the titration. For negative control, diluted DMSO 1:50 to medium. • Added 40 μl negative control and serially titrated compounds to 160 μl of cells for each cell line. Performed in triplicate for each cell line. • Incubated at 37° C. for 72 hours. • Performed assay using Vybrant MTT Cell Proliferation Assay kit (V-13154) (Molecular Probes) from Thermo Fisher Scientific (Waltham, Mass. USA).
48-hour treatment MTT assays were also performed as follows.

In a further data set the test system is PLC-PRF5 cells. The data set is described as follows: Apoptosis/necrosis assay (flow cytometry), PLC-PRF5 cells. The conditions noted are these: 24 hours; SK1-I 10, 20, 40 μM; ozanimod 5, 10, 20 μM; ABC294640 10, 20, 40 μM; vs no-drug control. It counts as cell-based, human. The method, then: as §1
(§4) The protocol used for the apoptosis assays was: • Plated cells in 6-well plates and incubated at 37° C. overnight. • Prepared concentrations of test compound and control compound DMSO in media. • Ozanimod: 5 μM, 10 μM, and 20 μM. • ABC294640: 10 μM, 20 μM, and 40 μM. • SK1-I: 10 μM, 20 μM, and 40 μM. • Control: 0.2% DMSO. • Aspirated the medium from the 6-well plates and added test compound concentrations in media or 0.2% DMSO control in media. Incubated at 37° C. for 24 hours. • Collected and processed the cells following the flow cytometry protocol of the GFP Certified® Apoptosis/Necrosis detection kit from Enzo Life Sciences, Inc. (product no. ENZ-51002; Farmingdale, N.Y., USA).
as §3

The subject of data set [2] is Jurkat cells (human T-cell leukemia cell line). The data set is described as follows: Apoptosis assay, Jurkat cells. The conditions noted are these: SK1-I 10, 20 μM; ozanimod 5, 10 μM; vs no-drug control. The format is cell-based. The method, then: as §4
as §3, with “apoptosis). […]” for “apoptosis).”

Data set [3] relates to primary human hepatocytes. The data set is described as follows: Apoptosis/necrosis assay, normal primary human hepatocytes. It counts as cell-based. The conditions noted are these: 24 hours; SK1-I 10, 20, 40 μM; ozanimod 2.5, 5, 10 μM; normal (non-cancerous) cells. The method, then: In still further experiments, the effects of SK1-I and ozanimod on normal (non-cancerous) primary human hepatocytes were investigated. Fresh human hepatocytes in a 12-well plate (HUF12) were obtained from Triangle Research Labs (Durham, N.C., USA; part of Lonza Group) and handled according to the supplier's protocol. The shipping medium was aspirated from each well and replaced with 1 ml per well of warm Hepatocyte Maintenance Medium. The plate was then placed in a 5% CO2 incubator at 37° C. and the hepatocytes were allowed to acclimate overnight. The Hepatocyte Maintenance Medium was replaced before treatment with drug or no-drug control, and the hepatocytes were treated with 0 μM (no-drug control), 10 μM, 20 μM, or 40 μM SK1-I or 0 μM, 2.5 μM, 5 μM, or 10 μM ozanimod for 24 hours under incubation. The cells were then harvested and analyzed using the GFP Certified® Apoptosis/Necrosis detection kit. The results are shown in FIGS. 19A-D for SK1-I and FIGS. 20A-D for ozanimod as follows.

A further data set has as its system Huh7 cells. The experiment in a line: Apoptosis/necrosis assay (flow cytometry), Huh7 cells. The conditions noted are these: 24 hours; SK1-I 10, 20, 40 μM; ozanimod 5, 10, 20 μM; ABC294640 10, 20, 40 μM; vs no-drug control. The format is cell-based, human. As to the method: as §1, §4, §3

Regarding `CCCCCc1ccc(/C=C/[C@H](O)[C@@H](CO)NC)cc1` [SK1-I, (E,2R,3S)-2-(methylamino)-5-(4-pentylphenyl)pent-4-ene-1,3-diol], the “induction of apoptosis in Hep G2 cells” value with Hep G2 cells was “strongly induced apoptosis”. For the same compound, in the data set on Hep 3B cells, the “induction of apoptosis in Hep 3B cells” value is “strongly induced apoptosis”. In addition, in data set [1], the “killing of hepatocellular carcinoma cells (MTT), comparison with PF-543” value is on record as “more effective at killing hepatocellular carcinoma cells than PF-543”. The “induction of apoptosis in PLC-PRF5 cells” value in the data set with PLC-PRF5 cells was “strongly induced apoptosis”. For the same compound, the “induction of apoptosis in Jurkat cells” value in data set [2] was “strongly induced apoptosis”. The “induction of apoptosis of primary human hepatocytes” value in data set [3] is reported as “did not induce apoptosis”. Besides, in the data set on Huh7 cells, the “induction of apoptosis in Huh7 cells” value was “strongly induced apoptosis”.

For the compound `CC(C)Oc1ccc(-c2nc(-c3cccc4c3CC[C@@H]4NCCO)no2)cc1C#N` [Ozanimod, 5-[3-[(1S)-1-(2-hydroxyethylamino)-2,3-dihydro-1H-inden-4-yl]-1,2,4-oxadiazol-5-yl]-2-propan-2-yloxybenzonitrile], the “induction of apoptosis in Hep G2 cells” value with Hep G2 cells is recorded as “strongly induced apoptosis”. For the same compound, the “induction of apoptosis in Hep 3B cells” value with Hep 3B cells is “strongly induced apoptosis”. Further, the “induction of apoptosis in PLC-PRF5 cells” value in the data set with PLC-PRF5 cells is given as “strongly induced apoptosis”. Moreover, the “induction of apoptosis in Jurkat cells” value in data set [2] is “strongly induced apoptosis”. Further, the “induction of apoptosis of primary human hepatocytes” value in data set [3] is given as “did not induce apoptosis”. Besides, the “induction of apoptosis in Huh7 cells” value in the data set on Huh7 cells is given as “strongly induced apoptosis”.

As to `O=C(NCc1ccncc1)C12CC3C[C@H](C1)CC(c1ccc(Cl)cc1)(C3)C2` [ABC294640, (7S)-3-(4-chlorophenyl)-N-(pyridin-4-ylmethyl)adamantane-1-carboxamide], in the data set with Hep G2 cells, the “induction of apoptosis in Hep G2 cells” value is “failed to induce apoptosis”. For the same compound, the “induction of apoptosis in Hep 3B cells” value in the data set on Hep 3B cells is “did not substantially induce apoptosis”. In the data set on PLC-PRF5 cells, the “induction of apoptosis in PLC-PRF5 cells” value is recorded as “did not substantially induce apoptosis”. Besides, the “induction of apoptosis in Huh7 cells” value in the data set with Huh7 cells is given as “failed to induce apoptosis”.
